Assays:
[1] = biological target: fatty acid amide hydrolase (FAAH) (Rattus norvegicus (Rat), UniProt P97612); assay: FAAH enzyme assay: inhibition of anandamide (AEA) hydrolysis, arachidonic acid quantified by HPLC; assay type: biochemical; conditions: for IC50 / Ki: eight-point assay; for IC50: anandamide hydrolysis by FAAH, read-out: IC50; for Ki: calculated with Prizm software, read-out: Ki; for inhibition at 100 µM / inhibition at 0.1 µM: one-point assay, partially purified rat brain FAAH, 15 min, read-out: % Inhibition (Concentration); for inhibition at 100 µM: inhibitor 100 μM; for inhibition at 0.1 µM: inhibitor 100 nM
fatty acid amide hydrolase (FAAH), sequence (P97612 whole entry): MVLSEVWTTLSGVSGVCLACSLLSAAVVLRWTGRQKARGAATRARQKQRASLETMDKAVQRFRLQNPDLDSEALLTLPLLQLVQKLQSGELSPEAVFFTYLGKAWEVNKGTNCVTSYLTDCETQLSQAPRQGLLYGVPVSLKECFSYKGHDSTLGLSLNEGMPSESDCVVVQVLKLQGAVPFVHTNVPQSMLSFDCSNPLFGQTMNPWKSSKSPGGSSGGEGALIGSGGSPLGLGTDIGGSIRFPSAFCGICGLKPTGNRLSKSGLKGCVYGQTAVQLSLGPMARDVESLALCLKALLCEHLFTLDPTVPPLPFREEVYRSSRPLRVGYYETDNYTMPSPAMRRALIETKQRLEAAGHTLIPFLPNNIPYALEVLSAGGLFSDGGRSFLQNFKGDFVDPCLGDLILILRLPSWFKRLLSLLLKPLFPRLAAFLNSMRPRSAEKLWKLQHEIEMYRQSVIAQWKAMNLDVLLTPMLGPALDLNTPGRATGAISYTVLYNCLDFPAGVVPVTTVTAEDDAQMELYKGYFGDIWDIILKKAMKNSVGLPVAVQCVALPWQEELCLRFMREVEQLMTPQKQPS
Method: The resulting supernatant is injected onto the HPLC.

Compound	melting point	IC50 [1]	Ki [1]	inhibition at 100 µM [1]	inhibition at 0.1 µM [1]
Oc1cccc(OCCCC(O)(O)C(F)(F)F)c1 (hydrate or solvate) [Compound 24.5, 1,1,1-Trifluoro-2,2-dihydroxy-5-[3-(hydroxy)phenoxy]pentane]	76 to 77 °C	–	–	–	–
O=S(=O)(Cl)CCCCCCCc1ccc(OCc2ccccc2)cc1 [Compound 12.1, 7-(4-Benzyloxy-phenyl)-heptanesulfonyl chloride]	33 to 35 °C	53.8 µM	12.7 µM	99%	–
O=S(=O)(F)CCCCCCCc1ccc(OCc2ccccc2)cc1 [Compound 13.1, 7-(4-Benzyloxy-phenyl)-heptanesulfonyl fluoride]	35 to 38 °C	–	–	100%	–
O=S(=O)(F)CCCCCc1ccc(OCc2ccccc2)cc1 [Compound 13.4, 5-(4-Benzyloxy-phenyl)-pentanesulfonyl fluoride]	66 to 68 °C	0.18 µM	0.015 µM	97%	–
O=S(=O)(F)CCCCCCCc1ccc(O)cc1 [Compound 14.1, 7-(4-Hydroxy-phenyl)-heptanesulfonyl fluoride]	47 to 51 °C	–	–	100%	–
O=S(=O)(F)CCCCCc1ccc(O)cc1 [Compound 14.4, 5-(4-Hydroxy-phenyl)-pentanesulfonyl fluoride]	32 to 35 °C	0.346 µM	–	99%	–
O=S(=O)(Cl)CCCCOc1ccccc1 [Compound 16, 4-Phenoxybutyl sulfonyl chloride]	65 to 67 °C	53.8 µM	12.7 µM	99%	–
O=S(=O)(F)CCCCOc1ccccc1 [Compound 17, 4-Phenoxybutylsulfonyl fluoride]	74 to 76 °C	0.226 µM	0.053 µM	100%	–
COS(=O)(=O)CCCCCCCc1ccc(OCc2ccccc2)cc1 [Compound 18, 7-(4-Benzyloxy-phenyl)-heptane-1-sulfonic acid methyl ester]	57 to 59 °C	0.256 µM	0.078 µM	93%	–
O=C(NCCCc1ccccc1)NCc1ccccn1 [Compound 59.1, N-(3-phenylpropyl)-N′-(2-pyridinylmethyl)-urea]	89 to 90 °C	–	–	–	–
O=C(NCCCc1ccccc1)Nc1ccccn1 [Compound 59.2, N-(3-phenylpropyl)-N′-(2-pyridinyl)-urea]	127 to 128 °C	–	–	–	–
O=C(CCCCCCOc1ccccc1)c1nnc(CO)o1 [Compound 74.1, 1-(5-hydroxymethyl-1,3,4-oxadiazol-2-yl)-7-phenoxy-heptan-1-one]	–	0.015 µM	0.001 µM	96%	–
O=C(CCCCCCOc1ccc(O)cc1)c1nnc(COCc2ccccc2)o1 [Compound 74.2, 1-(5-benzyloxymethyl-1,3,4-oxadiazol-2-yl)-7-(4-hydroxy-phenoxy)-heptan-1-one]	–	0.039 µM	0.003 µM	92%	–
COc1cccc(C(=O)c2nnc(C)o2)c1 [Compound 81, 1-(3-Methoxy-phenyl)-1-(5-methyl-1,3,4-oxadiazol-2-yl)-ketone]	–	–	–	24%	–
O=C1c2ccccc2S(=O)(=O)N1Cc1ccccc1 [Compound 83.1, N-(Phenylmethyl)saccharin]	–	–	–	42%	–
O=C1c2ccccc2S(=O)(=O)N1CCCCOc1ccccc1 [Compound 83.2, N-(4-Phenoxy-butyl)saccharin]	–	11.6 µM	–	91%	–

Compound	melting point	IC50 [1]	Ki [1]	inhibition at 100 µM [1]	inhibition at 0.1 µM [1]
O=C1c2ccccc2S(=O)(=O)N1CCCCOc1ccc(OCc2ccccc2)cc1 [Compound 83.3, N-[4-(4-Benzyloxy-phenoxy)-butyl]saccharin]	–	10.9 µM	–	87%	–
O=C1c2ccccc2S(=O)(=O)N1CCCCOc1ccc(O)cc1 [Compound 84, N-[4-(4-Hydroxy-phenoxy)-butyl]saccharin]	–	9.1 µM	0.9 µM	92%	–
CCOC(=O)C(=O)CCCCCOc1ccccc1 [Compound 87.4, 2-Oxo-7-phenoxy-heptanoic acid ethyl ester]	–	0.29 µM	0.09 µM	100%	–
CC(=O)C(F)(F)CCCCOc1ccccc1 [Compound 89.2]	–	–	–	98%	–
CC(=O)C(F)(F)CCCCCOc1ccccc1 [Compound 89.4, 3,3-difluoro-8-phenoxy-2-octanone]	–	0.23 µM	0.07 µM	87%	–
Cc1nnc(C(=O)C(F)(F)CCCCCCOc2ccccc2)o1 [Compound 89.7, 2,2-Difluoro-8-phenoxy-1-(5-methyl-1,3,4-oxadiazol-2-yl)-octan-1-one]	–	0.031 µM	0.009 µM	–	–
OC(O)(c1ccccn1)C(F)(F)CCCCOc1ccccc1 [Compound 89.9 Hydrate form]	–	0.039 µM	0.012 µM	–	63%
O=C(c1cccnc1)C(F)(F)CCCCOc1ccccc1 [Compound 89.10, 2,2-Difluoro-6-phenoxy-1-(pyridin-3-yl)-hexan-1-one]	–	0.164 µM	0.052 µM	–	33%
Cc1nnc(C(=O)C(F)(F)CCCCOc2ccccc2)o1 [Compound 89.12]	–	0.31 µM	0.1 µM	–	20%
CCOC(=O)C(=O)c1ccc(-c2ccccc2)cc1 [Compound 91.1, Ethyl 2-(biphenyl-4-yl)-2-oxoacetate]	–	15 µM	4.6 µM	86%	–
CCOC(=O)C(=O)c1ccc(Br)cc1 [Compound 91.5, Ethyl 2-(4-bromophenyl)-2-oxoacetate]	–	–	–	79%	–
Cc1nnc(C(=O)C(F)(F)c2ccc(-c3ccccc3)cc2)o1 [Compound 93.1, 2-(Biphenyl-4-yl)-2,2-difluoro-1-(5-methyl-1,3,4-oxadiazol-2-yl)ethanone]	–	0.21 µM	0.065 µM	–	41%
Cc1nnc(C(=O)C(F)(F)c2ccc(Br)cc2)o1 [Compound 93.5, 2-(4-Bromophenyl)-2,2-difluoro-1-(5-methyl-1,3,4-oxadiazol-2-yl)ethanone]	–	1.67 µM	0.53 µM	97%	–
O=C(c1cccc(Br)n1)C(F)(F)c1ccc(-c2ccccc2)cc1 [Compound 93.7, 2-(Biphenyl-4-yl)-1-(6-bromopyridin-2-yl)-2,2-difluoroethanone]	–	–	–	94%	–
O=C(c1ccc(-c2ccccc2)cc1)C(F)(F)c1ccccn1 [Compound 96.2, 1 (Biphenyl-4-yl)-2,2-difluoro-2-(pyridin-2-yl)ethanone]	–	–	–	61%	–

Next, values leading:

melting point	IC50 [1]	Ki [1]	inhibition at 100 µM [1]	inhibition at 0.1 µM [1]	Compound
59 to 61 °C	1.8 µM	0.15 µM	96%	–	O=C(CCCOc1ccc(OCc2ccccc2)cc1)C(F)(F)F [Compound 23.1, 1,1,1-Trifluoro-5-[4-(benzyloxy)phenoxy]-2-pentanone]
95.5 to 96 °C	13.6 µM	1.2 µM	76%	–	O=C(CCCCOc1ccc(OCc2ccccc2)cc1)C(F)(F)F [Compound 23.2, 1,1,1-Trifluoro-6-[4-(Benzyloxy)phenoxy]-2-hexanone]
59 to 60 °C	2.9 µM	0.32 µM	94%	–	O=C(CCCCCOc1ccc(OCc2ccccc2)cc1)C(F)(F)F [Compound 23.3, 1,1,1-Trifluoro-7-[4-(Benzyloxy)phenoxy]-2-heptanone]
82 to 83 °C	11.8 µM	0.83 µM	88%	–	O=C(CCCCCCOc1ccc(OCc2ccccc2)cc1)C(F)(F)F [Compound 23.4, 1,1,1-Trifluoro-8-[4-(Benzyloxy)phenoxy]-2-octanone]
50 to 51 °C	34.6 µM	2.28 µM	46%	–	O=C(CCCOc1ccccc1OCc1ccccc1)C(F)(F)F [Compound 23.8, 1,1,1-Trifluoro-5-[2-(Benzyloxy)phenoxy]-2-pentanone]
31 to 32 °C	7.9 µM	0.553 µM	95%	–	O=C(CCCCCOc1ccccc1OCc1ccccc1)C(F)(F)F [Compound 23.10, 1,1,1-Trifluoro-7-[2-(Benzyloxy)phenoxy]-2-heptanone]
50 to 51 °C	25.4 µM	2.8 µM	65%	–	O=C(CCCCOc1ccccc1)C(F)(F)F [Compound 23.12, 1,1,1-Trifluoro-6-phenoxy-2-hexanone]
63 to 64 °C	23.2 µM	2.6 µM	60%	–	O=C(CCCCOc1ccc(O)cc1)C(F)(F)F [Compound 24.2, 1,1,1-Trifluoro-6-[4-(hydroxy)phenoxy]-2-hexanone]
–	–	–	100%	–	CCOC(=O)C(=O)CCCCOc1cccc(OCc2ccccc2)c1 [Compound 87.1]
–	0.27 µM	0.08 µM	–	79%	CC(=O)C(F)(F)CCCCOc1cccc(OCc2ccccc2)c1 [Compound 89.1]
–	0.077 µM	0.024 µM	–	52%	O=C(c1ccccn1)C(F)(F)CCCCOc1ccccc1 [Compound 89.9, 2,2-Difluoro-6-phenoxy-1-(pyridin-2-yl)-hexan-1-one]
–	0.024 µM	0.007 µM	–	85%	O=C(c1cccnc1)C(F)(F)CCCCOc1cccc(OCc2ccccc2)c1 [Compound 89.11, 2,2-Difluoro-6-[3-(benzyloxy)phenoxy]-1-(pyridin-3-yl)-hexan-1-one]
–	0.038 µM	–	–	–	Cc1nnc(C(=O)C(F)(F)CCCCOc2cccc(OCc3ccccc3)c2)o1 [Compound 89.13]
–	–	–	86%	–	O=C(CCCCCCOc1ccccc1)C(F)(F)c1ccccn1 [Compound 96.1, 1,1-Difluoro-8-phenoxy-1-(pyridin-2-yl)octan-2-one]
